Measured values: patent publication US10398142B2, “Polycationic amphiphiles as antimicrobial agents” (priority 2013, dated 2019)
Read-outs that look alike come from different tables or passages of the source. Marks after values point to notes of the source that are not given here.

Columns and labels:
[1] = system: Enterococcus faecalis (OG1RF); assay: Minimum inhibitory concentration (MIC), broth microdilution; assay type: cell-based; conditions: for MIC: read-out: MIC E. faecalis
Method in brief: (§1)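 Broth microdilution: two-fold serial dilutions (twelve concentrations) mixed 1:1 with overnight cultures diluted to ca. 10^6 cfu/mL in Mueller-Hinton media, incubated statically at 37° C for 72 hours. MIC is lowest concentration with no growth visible to the naked eye, majority of three independent experiments.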

[2] = system: Escherichia coli (MC4100); assay: as above; assay type: cell-based; conditions: for MIC: read-out: MIC E. coli
Method in brief: as §1

[3] = system: Pseudomonas aeruginosa (PAO1); assay: as above; assay type: cell-based
Method in brief: as §1

[4] = system: Staphylococcus aureus MSSA (SH1000); assay: as above; assay type: cell-based
Method in brief: as §1

CA-MRSA (USA300-0114) [5] = assay: as above; assay type: cell-based, Staphylococcus aureus; conditions: for MIC: read-out: MIC CA-MRSA
Method in brief: (§2)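 Two-fold serial dilutions (twelve concentrations) from aqueous stock; inoculum ca. 10^6 cfu/mL in Mueller-Hinton media, static incubation at 37 °C for 72 h. MIC read visually as lowest concentration with no visible growth, majority of three independent experiments.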

HA-MRSA (ATCC 33591) = assay: as above; assay type: cell-based, Staphylococcus aureus; conditions: for MIC: read-out: MIC HA-MRSA
Method in brief: as §2

[6] = system: S. aureus (MSSA, SH1000) biofilms; assay: Minimum biofilm eradication concentration (MBEC), regrowth assay; assay type: cell-based, Staphylococcus aureus; conditions: for MBEC MSSA: Table 5, SH1000
Method in brief: (§3)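 Static 24 h biofilms at 37° C. (BHI for S. aureus, Todd Hewitt for E. faecalis), then 16 h compound exposure, PBS washes and overnight regrowth in fresh media. MBEC is the lowest concentration giving final OD595 below 0.1; four replicates per concentration.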

E. faecalis biofilms = assay: as above; assay type: cell-based, Enterococcus faecalis
Method in brief: as §3

[7] = system: CA-MRSA (USA300-0114) biofilms; assay: as above; assay type: cell-based, Staphylococcus aureus; conditions: for MBEC CA-MRSA: Table 5, USA300-0114
Method in brief: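 CA-MRSA USA300-0114 biofilms grown statically 24 h at 37 °C in BHI, then exposed to compound for 16 h at 37 °C. After PBS washes, biofilms regrown overnight in fresh media; MBEC is the lowest concentration giving OD595 below 0.1, four replicates per concentration.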

[8] = system: red blood cells (defibrinated sheep blood); assay: Hemolysis assay (Lysis20); conditions: concentration at which less than 20% of red blood cells are lysed
Method in brief: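 Defibrinated sheep red blood cells were incubated with compounds serially diluted in PBS, and the suspensions were read by OD. 1% Triton X served as 100% lysis and PBS as 0% lysis. Lysis20 is the concentration (μM) at which less than 20% of cells are lysed.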

MSSA (SH1000) = assay: Resistance development, liquid culture serial passage; assay type: cell-based, Staphylococcus aureus; conditions: for elevated concentration with consistent growth: MSSA (SH1000) passaged with sub-lethal doses; for resistance in serial passage, MSSA: over 24 days (>500 generations)
Method: (§4) Resistance development such as liquid culture resistance assay was performed. […] Once a day, an aliquot of bacterial culture from the highest concentration allowing bacterial growth was diluted 1:10,000 in fresh media containing a range of antibacterial compound. This process was repeated for several hundred generations.
(§5) Resistance Development Assays: Liquid culture serial passage protocols, in which bacteria are successively grown at sub-lethal concentrations of antibacterial compound, were employed.

S. aureus biofilms = assay: Crystal violet staining and confocal microscopy of pre-established biofilms; assay type: cell-based, Staphylococcus aureus; conditions: compared to the aqueous control or norspermidine; 16 h post-treatment
Method: Left: Submerged S. aureus biofilms 16 h post-treatment with the indicated final well concentration of compound. Middle: Biofilms stained with 1% crystal violet. Right: Confocal microscopy images of biofilms 16 h post-treatment.
The inventors have determined that both cationic character and alkyl side chains are important for biofilm eradication.

CA-MRSA (USA300-0114) [9] = assay: Resistance development, liquid culture serial passage; assay type: cell-based, Staphylococcus aureus; conditions: for resistance in serial passage, CA-MRSA (USA300-0114): over 24 days (>500 generations)
Method: as §4, §5

[10] = Table 3, read-out: MIC P. aeruginosa
[11] = Table 3, read-out: MIC S. aureus
[12] = Table 2, pre-established biofilm, ± values varied between 50 and 100 μM for the six trials
[13] = Table 1, read-out: MIC P. aeruginosa
[14] = Table 1, read-out: MIC S. aureus
[15] = Table 4, SH1000, read-out: MIC MSSA
[16] = table for compound (12,3,2,3,12)
[17] = over a period of at least 14 days

Row | SMILES | MIC ([1]; Table 3) | MIC ([2]; Table 3) | MIC [3, 10] | MIC [4, 11] | MBEC S. aureus [6, 12] | MBEC MSSA [6] | MBEC E. faecalis (E. faecalis biofilms; [12]) | MBEC E. faecalis (E. faecalis biofilms; Table 5) | MBEC CA-MRSA [7] | Lysis20 ([8]; Table 4) | MIC ([1]; Table 1) | MIC ([2]; Table 1) | MIC [3, 13] | MIC [4, 14] | MIC [4, 15] | MIC (CA-MRSA (USA300-0114) [5]; Table 4, USA300-0114) | MIC (HA-MRSA (ATCC 33591); Table 4, ATCC 33591) | effect against pre-established biofilms, crystal violet staining (S. aureus biofilms) | resistance in serial passage, CA-MRSA (USA300-0114) (CA-MRSA (USA300-0114) [9]) | resistance in serial passage, MSSA (MSSA (SH1000)) | also measured
1 | CCCCCCCCCCCC[N+](C)(C)Cc1ccccc1.[Cl-] [Bn,12, benzyldimethyldodecylammonium chloride, reference compound] | 8 µM | 32 µM | 63 µM | 8 µM | 200 µM | >200 µM | 200 µM | ≥200 µM | ≤200 µM | 63 µM |  |  |  |  |  |  |  |  |  |  | MIC ([1]; Enterococcus faecalis): 8 µM; MIC ([2]; Escherichia coli): 32 µM; MIC ([3]; Pseudomonas aeruginosa, PAO1, read-out: MIC P. aeruginosa): 63 µM; MIC ([4]; Staphylococcus aureus, MSSA, read-out: MIC MSSA): 8 µM; MIC ([4]; Staphylococcus aureus, MSSA, read-out: MIC S. aureus): 8 µM; MIC (CA-MRSA (USA300-0114) [5]; Staphylococcus aureus): 32 µM; potency against CA-MRSA strain possessing qacA/R (in words) (CA-MRSA (USA300-0114) [5]; compared with MSSA): decreased potency; MIC (HA-MRSA (ATCC 33591); Staphylococcus aureus): 8 µM; resistance development in MSSA (in words) (MSSA (SH1000); Bn,12: 31 days (>700 generations), 10,10: 10 days, 240 generations): development of resistance; elevated concentration with consistent growth (MSSA (SH1000); at day 11): 2 ×MIC; elevated concentration with consistent growth (MSSA (SH1000); at day 24): 4 ×MIC
2 | CCCCCCCCCCCC[N+](C)(C)CCCN(C)CCC[N+](C)(C)CCCCCCCCCCCC.[Br-].[Br-] [12,3,0,3,12] | 2 µM | 1 µM | 4 µM | 1 µM | 100 µM | 50 µM | 50 µM | 100 µM | 150 ± 50 µM | 4 µM | ≤0.25 µM | ≤0.25 µM | 4 µM | 1 µM | 1 µM | 1 µM | 0.5 µM | significant effect |  |  | 
3 | CCCCCCCCCCCC[N+](C)(C)CCC[N+](C)(C)CCC[N+](C)(C)CCCCCCCCCCCC.[Br-].[Br-].[I-] [12,3,1,3,12] | 2 µM | 2 µM | 8 µM | 1 µM | 100 µM | 100 µM | 50 µM | 200 µM | 150 ± 50 µM | 8 µM | 1 µM | 1 µM | 2 µM | 0.5 µM | 1 µM | 0.5 µM | 1 µM | significant effect |  |  | 
4 | CCCCCCCCCCCC[N+](C)(C)CCC[N+](C)(C)CCCCCCCCCCCC.[Br-].[Br-] [12,3,12] |  |  |  |  | 100 µM | 75 ± 25 µM | 75 ± 25^a μM | 50 µM | 100 µM | 8 µM | 1 µM | 1 µM | 4 µM | 2 µM | 2 µM | 1 µM | 2 µM | significant effect | No resistance was observed | No resistance was observed | 
5 | CCCCCCCCCCCC[N+](C)(C)CCC[N+](C)(CCC[N+](C)(C)CCCCCCCCCCCC)Cc1ccc(CCCCCCCC)cc1.[Br-].[Br-].[Br-] [12,3,Bn-8,3,12] | 1 µM | 1 µM | 4 µM | 1 µM |  | 200 µM |  | 200 µM | >200 µM | 8 µM |  |  |  |  | 2 µM | 2 µM | 1 µM |  |  |  | 
6 | CCCCCCCCCCCC[N+](C)(C)CCC[N+](C)(CC)CCC[N+](C)(C)CCCCCCCCCCCC.[Br-].[Br-].[Br-] [12,3,2,3,12] |  |  |  |  |  | 100 µM |  | 100 µM | 100 µM | 8 µM |  |  |  |  | 0.5 µM | 0.5 µM | 1 µM |  | No resistance was observed | No resistance was observed | MIC E. faecalis (OG1RF) [1, 16]: 0.5 µM; MIC E. coli (MC4100) [2, 16]: 1 µM; MIC P. aeruginosa (PA01) [3, 16]: 2 µM; MIC S. aureus (SH1000) [4, 16]: 0.5 µM; MIC CA-MRSA (USA300-0114) (CA-MRSA (USA300-0114) [5]; [16]): 0.5 µM; MIC HA-MRSA (ATCC33591) (HA-MRSA (ATCC 33591); [16]): 1 µM; MBEC S. aureus [6, 16]: 100 µM; MBEC E. faecalis (E. faecalis biofilms; [16]): 100 µM; MBEC USA300-0114 [7, 16]: 100 µM; Lysis20 [8, 16]: 8 µM; resistance in serially passaged liquid culture, USA300-0114 (CA-MRSA (USA300-0114) [9]; [17]): No resistance was observed; resistance in serially passaged liquid culture, SH1000 (MSSA (SH1000); [17]): No resistance was observed
